These are literature values, as cited in patent publication US12030852B2, “Method for producing fatty alcohol esters of hydroxycarboxylic acids” (IOI Oleo GmbH, priority 2019, dated 2024).

For this series the following is noted: even if several grams are taken; short plasma half-life.

With `CC(O)CC(=O)O` (stereo not shown) [3-hydroxybutyric acid], the duration of ketosis entry is “about three to four”.
